{"source": "paper PMC12598616", "about": "“Design and optimization of caspase-1-responsive fluorescent probes for pyroptosis imaging and anti-pyroptosis drug screening” (Chemical Science, 2025)", "key": {"[1]": {"system": "activated Cas-1 in primary peritoneal macrophages", "experiment": "High-content screening / fluorescence imaging for caspase-1 modulators in primary peritoneal macrophages", "format": "cell-based, mouse", "details": "natural product 10 μM with Nig 10 μM 2 h after LPS 4 h; FPy1 5 μM", "source_text": "The efficient and rapid discovery of Cas-1 modulators is of significant importance considering the therapeutic potential of Cas-1 in various diseases.[39,40] Therefore, we employed FPy1 to construct a high-content screening system aimed at identifying Cas-1 modulators. The level of activated Cas-1 in cells is influenced by multiple factors. To reduce the impact of factors that affect Cas-1 activation in cells, we utilized the NLRP3 inflammasome-mediated Cas-1 activation model, administering the drug during the second stage where the zymogen was converted into activated Cas-1. MCC950, a selective NLRP3 inflammasome inhibitor that could suppress Cas-1 activation, was selected as the positive drug.[41] […] To validate the efficacy of the Cas-1 modulator screening system (Fig. 6a), we first observed the fluorescence images of PMs stained with FPy1 (5 μM) in the control group, model group, and positive drug group. […] Subsequently, the impact of 25 natural products (10 μM) on activated Cas-1 were studied using high-content analysis (Fig. S20). […] To determine whether deoxyshikonin directly binds to Cas-1 and inhibits its activity, we conducted fluorescence detection following co-incubation of deoxyshikonin, FPy1 and Cas-1. […]\nHarvested rat discs were fixed in 4 % buffered paraformaldehyde for 24 hours, decalcified in 10 % ethylenediaminetetraacetic acid (EDTA, Solarbio, E8030) solution for 1 month, embedded in paraffin, and sectioned at a thickness of 5 μm. […] Stained sections were evaluated by three independent raters, blinded to the research protocol, and measurements were averaged for statistical analysis. […]\nIn vivo fluorescence imaging of intervertebral disc degeneration\nTwelve rats were modeled with needle puncture-induced intervertebral disc degeneration at the Co5/6, Co6/7 and Co 7/8 levels. […] In vivo fluorescence images were acquired using an in vivo Imaging System (PerkinElmer). […]\nIn vivo fluorescence imaging of osteoarthritis […]"}, "Cas-1": {"system": "Cas-1", "experiment": "Fluorescence detection after co-incubation of deoxyshikonin, FPy1 and Cas-1", "format": "biochemical, human", "source_text": "The efficient and rapid discovery of Cas-1 modulators is of significant importance considering the therapeutic potential of Cas-1 in various diseases.[39,40] Therefore, we employed FPy1 to construct a high-content screening system aimed at identifying Cas-1 modulators. The level of activated Cas-1 in cells is influenced by multiple factors. To reduce the impact of factors that affect Cas-1 activation in cells, we utilized the NLRP3 inflammasome-mediated Cas-1 activation model, administering the drug during the second stage where the zymogen was converted into activated Cas-1. MCC950, a selective NLRP3 inflammasome inhibitor that could suppress Cas-1 activation, was selected as the positive drug.[41] […] To validate the efficacy of the Cas-1 modulator screening system (Fig. 6a), we first observed the fluorescence images of PMs stained with FPy1 (5 μM) in the control group, model group, and positive drug group. […] Subsequently, the impact of 25 natural products (10 μM) on activated Cas-1 were studied using high-content analysis (Fig. S20). […] To determine whether deoxyshikonin directly binds to Cas-1 and inhibits its activity, we conducted fluorescence detection following co-incubation of deoxyshikonin, FPy1 and Cas-1. […] Overall, FPy1 could serve as an effective tool for the rapid identification of lead compounds that modulate Cas-1 activity within a high-content analysis platform. […]"}, "cleaved Cas-1": {"system": "cleaved Cas-1", "experiment": "Western blot of cleaved Cas-1", "format": "cell-based", "details": "control and treated groups"}}}
{"smiles": "CC(C)=CCCC1=CC(=O)c2c(O)ccc(O)c2C1=O", "note": "[deoxyshikonin]", "values": [{"measurement": "fluorescence intensity of FPy1 relative to model group, high-content analysis", "setting": "[1]", "value": "significant reduction in fluorescence intensity compared to the model group"}, {"measurement": "fluorescence at 585 nm in presence of compound (direct Cas-1 inhibition)", "setting": "Cas-1", "value": "the fluorescence at 585 nm was lower in the presence of deoxyshikonin"}, {"measurement": "activated Cas-1 level (Western blot)", "setting": "cleaved Cas-1", "value": "significantly inhibit the activation of Cas-1, reducing activated Cas-1 levels"}]}
